Remaining activity data for two molecules are collected here from patent US12227500B2, “Substituted pyrrolo[2,3-b]pyridines for suppressing toxic endoplasmic reticulum stress” (THE TRUSTEES OF COLUMBIA UNIVERSITY IN THE CITY OF NEW YORK, priority 2018, dated 2025).

Holding throughout (assay): Radiolabeled ATP kinase assay, panel of 371 kinases (Table S6)
Holding throughout (assay type): biochemical

The target in assay [1] is T1, panel of 371 human kinases (Homo sapiens, UniProt O15146).
T1 construct: purchased Reaction Biology Corp
As to conditions: MUSK; 0.1 μM; 10 μM ATP; read-out: % Enzyme Activity (relative to DMSO controls). The text has this:
(§1) ; FIG. 38C). […]. Further targeted analyses, such as genetic knock-down or knock-out, may be warranted to parse the role of these additional kinases in our model of neurodegeneration.

For assay [2], the target named is T2, panel of 371 human kinases (Homo sapiens, UniProt O95835).
T2 construct: purchased Reaction Biology Corp
To be noted: LATS1; 0.1 μM; 10 μM ATP; read-out: % Enzyme Activity (relative to DMSO controls).
Text: as §1

The target of assay [3] is T3, panel of 371 human kinases (Homo sapiens, UniProt P05771).
T3 construct: purchased Reaction Biology Corp
To be noted: PKCb1; 0.1 μM; 10 μM ATP; read-out: % Enzyme Activity (relative to DMSO controls).
Text: as §1

In assay [4] the target is T4, panel of 371 human kinases (Homo sapiens, UniProt P07947).
T4 construct: purchased Reaction Biology Corp
As to conditions: YES/YES1; 0.1 μM; 10 μM ATP; read-out: % Enzyme Activity (relative to DMSO controls).
Text: as §1

Assay [5] concerns the target T5, panel of 371 human kinases (Homo sapiens, UniProt P11362).
T5 construct: purchased Reaction Biology Corp
As to conditions: FGFR1; 0.1 μM; 10 μM ATP; read-out: % Enzyme Activity (relative to DMSO controls).
Text: as §1

The target in assay [6] is T6, panel of 371 human kinases (Homo sapiens, UniProt P17252).
T6 construct: purchased Reaction Biology Corp
As to conditions: PKCa; 0.1 μM; 10 μM ATP; read-out: % Enzyme Activity (relative to DMSO controls).
Text: as §1

The target in assay [7] is T7, panel of 371 human kinases (Homo sapiens, UniProt P29322).
T7 construct: purchased Reaction Biology Corp
To be noted: EPHA8; 0.1 μM; 10 μM ATP; read-out: % Enzyme Activity (relative to DMSO controls).
Text: as §1

In assay [8] the target is T8, panel of 371 human kinases (Homo sapiens, UniProt P29597).
T8 construct: purchased Reaction Biology Corp
As to conditions: TYK2; 0.1 μM; 10 μM ATP; read-out: % Enzyme Activity (relative to DMSO controls).
Text: as §1

In assay [9] the target is T9, panel of 371 human kinases (Homo sapiens, UniProt P31751).
T9 construct: purchased Reaction Biology Corp
As to conditions: AKT2; 0.1 μM; 10 μM ATP; read-out: % Enzyme Activity (relative to DMSO controls).
Text: as §1

Assay [10] addresses T10, panel of 371 human kinases (Homo sapiens, UniProt P34947).
T10 construct: purchased Reaction Biology Corp
As to conditions: GRK5; 0.1 μM; 10 μM ATP; read-out: % Enzyme Activity (relative to DMSO controls).
Text: as §1

In assay [11] the target is T11, panel of 371 human kinases (Homo sapiens, UniProt P45985).
T11 construct: purchased Reaction Biology Corp
To be noted: MKK4; 0.1 μM; 10 μM ATP; read-out: % Enzyme Activity (relative to DMSO controls).
Text: as §1

In assay [12] the target is T12, panel of 371 human kinases (Homo sapiens, UniProt P54764).
T12 construct: purchased Reaction Biology Corp
To be noted: EPHA4; 0.1 μM; 10 μM ATP; read-out: % Enzyme Activity (relative to DMSO controls).
Text: as §1

In assay [13] the target is T13, panel of 371 human kinases (Homo sapiens, UniProt Q02763).
T13 construct: purchased Reaction Biology Corp
As to conditions: TIE2/TEK; 0.1 μM; 10 μM ATP; read-out: % Enzyme Activity (relative to DMSO controls).
Text: as §1

In assay [14] the target is T14, panel of 371 human kinases (Homo sapiens, UniProt Q02779).
T14 construct: purchased Reaction Biology Corp
To be noted: MLK2/MAP3K10; 0.1 μM; 10 μM ATP; read-out: % Enzyme Activity (relative to DMSO controls).
Text: as §1

Assay [15] concerns the target T15, panel of 371 human kinases (Homo sapiens, UniProt Q13233).
T15 construct: purchased Reaction Biology Corp
To be noted: MEKK1; 0.1 μM; 10 μM ATP; read-out: % Enzyme Activity (relative to DMSO controls).
Text: as §1

In assay [16] the target is T16, panel of 371 human kinases (Homo sapiens, UniProt Q15831).
T16 construct: purchased Reaction Biology Corp
As to conditions: LKB1; 0.1 μM; 10 μM ATP; read-out: % Enzyme Activity (relative to DMSO controls).
Text: as §1

The target of assay [17] is T17, panel of 371 human kinases (Homo sapiens, UniProt Q6P3R8).
T17 construct: purchased Reaction Biology Corp
As to conditions: NEK5; 0.1 μM; 10 μM ATP; read-out: % Enzyme Activity (relative to DMSO controls).
Text: as §1

Assay [18] concerns the target T18, panel of 371 human kinases (Homo sapiens, UniProt Q8NE63).
T18 construct: purchased Reaction Biology Corp
To be noted: HIPK4; 0.1 μM; 10 μM ATP; read-out: % Enzyme Activity (relative to DMSO controls).
Text: as §1

Assay [19] has as its target T19, panel of 371 human kinases (Homo sapiens, UniProt Q8TDC3).
T19 construct: purchased Reaction Biology Corp
As to conditions: BRSK1; 0.1 μM; 10 μM ATP; read-out: % Enzyme Activity (relative to DMSO controls).
Text: as §1

Assay [20] has as its target T20, panel of 371 human kinases (Homo sapiens, UniProt Q8WTQ7).
T20 construct: purchased Reaction Biology Corp
To be noted: GRK7; 0.1 μM; 10 μM ATP; read-out: % Enzyme Activity (relative to DMSO controls).
Text: as §1

The target in assay [21] is T21, panel of 371 human kinases (Homo sapiens, UniProt Q96L34).
T21 construct: purchased Reaction Biology Corp
To be noted: MARK4; 0.1 μM; 10 μM ATP; read-out: % Enzyme Activity (relative to DMSO controls).
Text: as §1

In assay [22] the target is T22, panel of 371 human kinases (Homo sapiens, UniProt Q99759).
T22 construct: purchased Reaction Biology Corp
To be noted: MEKK3; 0.1 μM; 10 μM ATP; read-out: % Enzyme Activity (relative to DMSO controls).
Text: as §1

Assay [23] addresses T23, panel of 371 human kinases (Homo sapiens, UniProt Q9BXA6).
T23 construct: purchased Reaction Biology Corp
As to conditions: SSTK/TSSK6; 0.1 μM; 10 μM ATP; read-out: % Enzyme Activity (relative to DMSO controls).
Text: as §1

The target of assay [24] is T24, panel of 371 human kinases (Homo sapiens, UniProt Q9H422).
T24 construct: purchased Reaction Biology Corp
As to conditions: HIPK3; 0.1 μM; 10 μM ATP; read-out: % Enzyme Activity (relative to DMSO controls).
Text: as §1

T4 sequence (P07947 whole entry): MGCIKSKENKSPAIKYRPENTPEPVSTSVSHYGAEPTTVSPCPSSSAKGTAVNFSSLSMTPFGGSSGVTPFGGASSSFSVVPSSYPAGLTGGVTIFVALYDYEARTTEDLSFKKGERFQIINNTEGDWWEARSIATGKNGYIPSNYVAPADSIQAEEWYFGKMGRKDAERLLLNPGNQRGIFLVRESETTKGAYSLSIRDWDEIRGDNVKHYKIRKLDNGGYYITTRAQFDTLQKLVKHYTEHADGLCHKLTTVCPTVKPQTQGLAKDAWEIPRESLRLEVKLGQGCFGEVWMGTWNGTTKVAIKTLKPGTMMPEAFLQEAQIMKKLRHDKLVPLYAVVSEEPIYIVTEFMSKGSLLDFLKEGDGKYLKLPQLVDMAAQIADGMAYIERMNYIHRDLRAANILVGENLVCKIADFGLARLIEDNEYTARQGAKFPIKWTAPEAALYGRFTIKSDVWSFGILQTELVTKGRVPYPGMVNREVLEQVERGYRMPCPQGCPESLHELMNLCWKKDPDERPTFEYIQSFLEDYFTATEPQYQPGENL
T5 sequence (P11362 22-822): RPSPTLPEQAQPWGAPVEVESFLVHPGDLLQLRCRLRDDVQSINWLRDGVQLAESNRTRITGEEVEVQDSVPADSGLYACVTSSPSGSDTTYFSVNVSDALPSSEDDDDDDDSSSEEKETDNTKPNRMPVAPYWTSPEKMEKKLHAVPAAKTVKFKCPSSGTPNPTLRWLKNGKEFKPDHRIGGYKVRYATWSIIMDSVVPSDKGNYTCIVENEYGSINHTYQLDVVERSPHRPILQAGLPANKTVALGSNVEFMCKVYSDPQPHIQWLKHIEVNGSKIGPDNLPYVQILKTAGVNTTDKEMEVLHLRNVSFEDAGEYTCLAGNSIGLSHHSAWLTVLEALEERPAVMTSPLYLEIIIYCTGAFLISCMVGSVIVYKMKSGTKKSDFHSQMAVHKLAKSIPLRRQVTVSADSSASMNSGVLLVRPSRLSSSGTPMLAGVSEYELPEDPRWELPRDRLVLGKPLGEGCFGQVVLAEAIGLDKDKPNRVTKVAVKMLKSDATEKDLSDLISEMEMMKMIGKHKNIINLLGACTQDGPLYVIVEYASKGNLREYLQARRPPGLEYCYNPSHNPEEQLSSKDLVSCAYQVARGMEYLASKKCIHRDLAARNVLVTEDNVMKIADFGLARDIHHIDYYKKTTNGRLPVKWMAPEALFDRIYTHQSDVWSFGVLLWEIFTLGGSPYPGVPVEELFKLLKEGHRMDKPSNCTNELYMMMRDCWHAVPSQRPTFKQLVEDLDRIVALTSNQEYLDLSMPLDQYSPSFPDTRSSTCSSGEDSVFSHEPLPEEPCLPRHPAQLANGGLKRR
T24 sequence (Q9H422 whole entry): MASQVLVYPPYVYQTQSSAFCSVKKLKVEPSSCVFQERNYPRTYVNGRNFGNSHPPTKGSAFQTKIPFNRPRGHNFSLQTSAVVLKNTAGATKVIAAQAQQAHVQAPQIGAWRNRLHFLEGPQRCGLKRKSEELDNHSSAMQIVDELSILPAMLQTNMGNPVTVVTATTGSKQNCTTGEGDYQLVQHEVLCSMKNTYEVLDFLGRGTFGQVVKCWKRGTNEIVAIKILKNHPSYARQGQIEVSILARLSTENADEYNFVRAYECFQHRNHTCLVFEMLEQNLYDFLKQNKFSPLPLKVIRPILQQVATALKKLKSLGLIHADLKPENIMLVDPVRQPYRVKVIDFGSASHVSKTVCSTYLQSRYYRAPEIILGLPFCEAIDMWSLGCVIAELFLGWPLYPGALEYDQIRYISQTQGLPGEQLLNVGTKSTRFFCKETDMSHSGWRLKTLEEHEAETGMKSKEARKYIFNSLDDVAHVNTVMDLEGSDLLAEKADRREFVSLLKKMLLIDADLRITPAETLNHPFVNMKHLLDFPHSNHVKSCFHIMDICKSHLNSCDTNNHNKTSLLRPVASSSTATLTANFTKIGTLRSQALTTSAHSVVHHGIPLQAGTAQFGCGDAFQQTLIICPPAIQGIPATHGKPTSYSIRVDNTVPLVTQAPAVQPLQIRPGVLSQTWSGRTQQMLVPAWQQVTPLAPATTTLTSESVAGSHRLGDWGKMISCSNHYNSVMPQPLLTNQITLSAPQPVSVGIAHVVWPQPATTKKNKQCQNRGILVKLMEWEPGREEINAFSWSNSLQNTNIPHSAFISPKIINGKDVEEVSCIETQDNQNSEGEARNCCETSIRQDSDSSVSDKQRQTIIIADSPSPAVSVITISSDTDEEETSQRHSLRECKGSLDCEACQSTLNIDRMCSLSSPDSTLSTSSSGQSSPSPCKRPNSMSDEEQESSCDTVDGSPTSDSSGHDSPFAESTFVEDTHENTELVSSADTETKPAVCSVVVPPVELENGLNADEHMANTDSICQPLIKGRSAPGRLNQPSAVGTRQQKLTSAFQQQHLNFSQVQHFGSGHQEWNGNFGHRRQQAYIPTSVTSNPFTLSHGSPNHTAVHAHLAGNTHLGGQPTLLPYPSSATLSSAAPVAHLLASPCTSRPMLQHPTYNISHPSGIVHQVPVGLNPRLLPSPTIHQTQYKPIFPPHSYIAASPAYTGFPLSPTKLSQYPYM
T16 sequence (Q15831 whole entry): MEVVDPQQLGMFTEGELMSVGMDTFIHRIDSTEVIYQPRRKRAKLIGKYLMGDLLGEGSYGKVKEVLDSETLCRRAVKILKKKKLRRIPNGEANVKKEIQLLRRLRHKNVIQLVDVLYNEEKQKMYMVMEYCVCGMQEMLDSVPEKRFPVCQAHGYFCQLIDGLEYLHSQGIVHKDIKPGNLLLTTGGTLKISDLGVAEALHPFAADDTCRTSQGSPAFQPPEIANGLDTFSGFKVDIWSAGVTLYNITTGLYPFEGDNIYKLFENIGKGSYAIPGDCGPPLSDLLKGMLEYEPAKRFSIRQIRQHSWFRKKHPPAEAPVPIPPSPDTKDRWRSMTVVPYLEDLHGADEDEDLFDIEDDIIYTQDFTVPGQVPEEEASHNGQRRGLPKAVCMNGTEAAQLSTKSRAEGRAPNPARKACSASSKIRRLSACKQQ
T3 sequence (P05771 whole entry): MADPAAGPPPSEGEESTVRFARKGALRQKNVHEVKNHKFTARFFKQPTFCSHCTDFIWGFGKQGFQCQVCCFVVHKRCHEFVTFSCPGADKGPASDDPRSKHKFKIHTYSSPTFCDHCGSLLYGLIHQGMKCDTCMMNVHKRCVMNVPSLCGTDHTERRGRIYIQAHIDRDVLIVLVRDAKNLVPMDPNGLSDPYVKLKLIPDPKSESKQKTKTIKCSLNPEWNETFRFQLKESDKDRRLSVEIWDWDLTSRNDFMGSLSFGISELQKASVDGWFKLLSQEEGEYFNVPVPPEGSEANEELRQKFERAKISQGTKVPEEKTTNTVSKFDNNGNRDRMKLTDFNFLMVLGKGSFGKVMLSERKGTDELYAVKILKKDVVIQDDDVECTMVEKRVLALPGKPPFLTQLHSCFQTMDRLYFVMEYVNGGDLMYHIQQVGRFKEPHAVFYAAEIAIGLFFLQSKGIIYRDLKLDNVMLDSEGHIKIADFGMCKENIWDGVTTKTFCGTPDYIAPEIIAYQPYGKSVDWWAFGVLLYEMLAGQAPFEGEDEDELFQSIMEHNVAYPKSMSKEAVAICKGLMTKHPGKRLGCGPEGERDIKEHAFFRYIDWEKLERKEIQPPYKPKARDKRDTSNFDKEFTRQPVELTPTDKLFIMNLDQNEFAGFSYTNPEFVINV
T23 sequence (Q9BXA6 whole entry): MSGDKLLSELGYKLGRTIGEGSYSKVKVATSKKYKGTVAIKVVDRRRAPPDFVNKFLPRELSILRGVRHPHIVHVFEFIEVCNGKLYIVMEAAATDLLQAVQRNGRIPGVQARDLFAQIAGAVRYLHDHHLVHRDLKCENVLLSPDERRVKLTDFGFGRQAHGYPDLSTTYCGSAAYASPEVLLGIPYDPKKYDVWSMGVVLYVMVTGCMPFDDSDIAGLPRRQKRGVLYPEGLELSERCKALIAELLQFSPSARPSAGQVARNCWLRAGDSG
T13 sequence (Q02763 23-1124): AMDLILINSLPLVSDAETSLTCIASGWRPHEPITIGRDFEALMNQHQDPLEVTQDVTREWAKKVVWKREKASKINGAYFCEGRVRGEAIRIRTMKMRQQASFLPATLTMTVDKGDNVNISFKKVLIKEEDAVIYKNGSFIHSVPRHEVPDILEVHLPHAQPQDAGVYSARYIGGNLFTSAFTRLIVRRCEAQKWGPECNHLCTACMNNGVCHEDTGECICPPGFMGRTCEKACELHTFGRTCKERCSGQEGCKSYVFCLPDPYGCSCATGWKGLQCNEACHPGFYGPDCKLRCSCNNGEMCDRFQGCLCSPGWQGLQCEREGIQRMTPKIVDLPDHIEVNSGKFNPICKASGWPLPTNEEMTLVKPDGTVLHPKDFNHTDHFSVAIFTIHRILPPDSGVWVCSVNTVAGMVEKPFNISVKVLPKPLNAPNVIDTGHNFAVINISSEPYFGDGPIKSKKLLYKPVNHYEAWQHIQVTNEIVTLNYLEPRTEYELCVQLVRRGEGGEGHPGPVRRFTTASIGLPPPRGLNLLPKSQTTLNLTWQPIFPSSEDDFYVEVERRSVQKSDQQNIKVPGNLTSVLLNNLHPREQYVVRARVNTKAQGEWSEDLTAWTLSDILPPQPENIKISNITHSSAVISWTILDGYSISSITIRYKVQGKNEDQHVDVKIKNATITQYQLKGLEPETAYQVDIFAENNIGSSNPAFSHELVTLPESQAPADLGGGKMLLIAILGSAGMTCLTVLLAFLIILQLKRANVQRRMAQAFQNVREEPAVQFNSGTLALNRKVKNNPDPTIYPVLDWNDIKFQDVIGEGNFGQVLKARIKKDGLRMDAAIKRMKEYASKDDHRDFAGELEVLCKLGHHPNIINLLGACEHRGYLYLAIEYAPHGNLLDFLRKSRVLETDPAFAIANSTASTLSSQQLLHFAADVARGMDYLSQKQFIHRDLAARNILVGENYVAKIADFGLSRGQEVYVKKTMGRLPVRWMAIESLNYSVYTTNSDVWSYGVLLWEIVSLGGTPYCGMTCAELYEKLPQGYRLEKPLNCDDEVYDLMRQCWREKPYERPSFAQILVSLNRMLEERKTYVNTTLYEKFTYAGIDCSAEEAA

For `CN1CCN(Cc2ccc(-c3cnc4[nH]cc(-c5ccc6[nH]ccc6c5)c4c3)cc2)CC1` [Compound 1, 3-(1H-Indol-5-yl)-5-(4-((4-methylpiperazin-1-yl)methyl)phenyl)-1H-pyrrolo[2,3-b]pyridine, reference compound], the remaining activity at 0.1 µM in assay [1] was found to be 101%; in assay [2], 83.6%; in [3], 78.3%; in assay [4], 96.6%; in assay [5], 93.9%; in assay [6] it was 91.4%. Moreover, the remaining activity at 0.1 µM in [7] was 90.8%; in [8], 90.8%; in [9], 96.7%; in [10], 98.2%; in assay [11], 105%; in assay [12], 94.2%. Moreover, the remaining activity at 0.1 µM was found to be 95% in [13]; 84.1% in assay [14]; 102% in assay [15]; 101% in assay [16]; 87.1% in assay [17]; 107% in assay [18]. The remaining activity at 0.1 µM came to 80.8% in assay [19]; 101% in assay [20]; 76% in assay [21]; 91.6% in assay [22]; 121% in assay [23]; 103% in [24].
Take `OCCN1CCN(Cc2ccc(-c3cnc4[nH]cc(-c5cccc(Cl)c5)c4c3)cc2)CC1` [Compound 12k, 2-(4-(4-(3-(3-Chlorophenyl)-1H-pyrrolo[2,3-b]pyridin-5-yl)benzyl)piperazin-1-yl)ethan-1-ol]: the remaining activity at 0.1 µM is 86.7% in assay [1]; 84.4% in assay [2]; 86.2% in assay [3]; 109% in assay [4]; 95% in assay [5]; 98.5% in assay [6]. Further, the remaining activity at 0.1 µM in [7] worked out at 93.5%; in assay [8], 92.9%; in assay [9] it was 103%; in [10], 93.3%; in assay [11] it was 110%; in [12], 88.7%. Further, the remaining activity at 0.1 µM in [13] came to 103%; in assay [14] it was 73.1%; in [15], 94%; in assay [16], 78.7%; in assay [17], 92.4%; in [18] it was 105%. The remaining activity at 0.1 µM worked out at 83.6% in [19]; 97.1% in assay [20]; 40% in [21]; 94.6% in assay [22]; 102% in assay [23]; 113% in assay [24].
